Measurements published in the supplement of paper PMC11451515.

What was measured:
Conditions in all cases: 48 h
NOMO1 [1] = assay: AUC of viability dose-response curve (% viability x log10 dose units); higher = less sensitive
Outline: (§1)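 Over 48 h at 37°C, leukemia cells in 1536-well plates (500 or 1000 cells/well), adapted to each medium, received library compounds in DMSO at 11 threefold doses from 47 μM to 0.79 nM. CellTiter-Glo One luminescence, normalised per plate to DMSO and cell-free wells, was fitted by a four-parameter log-logistic function of log10 dose. The area under the curve was then integrated by trapezoidal rule, after scaling curves above full viability and removing those that failed quality control.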

P12-Ichikawa [2] = assay: as above
Outline: as §1

SEM cells [3] = assay: as above
Outline: as §1

NOMO1 [4] = assay: cell viability relative to DMSO control; higher = less cytotoxic
Outline: (§2)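 NOMO1 or SEM cells were plated at 500 cells/well and P12-Ichikawa cells at 1000 cells/well in 1536-well plates (5 μl), after each leukemia line had been adapted for at least four passages in each medium. Pin dosing delivered library compounds in DMSO at 11 threefold concentrations, 47 μM to 0.79 nM. CellTiter-Glo One luminescence was read after 48 h at 37°C. Viability is reported as a per-plate percentage of DMSO wells, with cell-free wells as background.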

P12-Ichikawa [5] = assay: as above
Outline: as §2

SEM cells [6] = assay: as above
Outline: as §2

CCCCCCCCCCCC(CC1OC(=O)C1CCCCCC)OC(=O)C(CC(C)C)NC=O (stereo not given)
AUC of viability dose-response curve
Conditions | NOMO1 [1] | P12-Ichikawa [2] | SEM cells [3]
HPLM + 10% dialyzed FBS | 452 | 443 | 407
RPMI 5 mM glucose + 10% FBS | 461 | 440 | 343
RPMI 5 mM glucose + 10% dialyzed FBS | 456 | 443 | 391

cell viability [%]
Conditions | NOMO1 [4] | P12-Ichikawa [5] | SEM cells [6]
HPLM + 10% dialyzed FBS, 0.000781 µM | 92.9 | 98.6 | 86.9
HPLM + 10% dialyzed FBS, 0.00234 µM | 105 | 110 | 82.3
HPLM + 10% dialyzed FBS, 0.00702 µM | 100 | 110 | 96.1
HPLM + 10% dialyzed FBS, 0.0211 µM | 109 | 105 | 99
HPLM + 10% dialyzed FBS, 0.0632 µM | 110 | 111 | 92.8
HPLM + 10% dialyzed FBS, 0.19 µM | 114 | 107 | 98.8
HPLM + 10% dialyzed FBS, 0.569 µM | 118 | 119 | 91.4
HPLM + 10% dialyzed FBS, 1.71 µM | 114 | 107 | 98
HPLM + 10% dialyzed FBS, 5.12 µM | 109 | 105 | 83.2
HPLM + 10% dialyzed FBS, 15.4 µM | 98.8 | 84.2 | 65.1
HPLM + 10% dialyzed FBS, 46.1 µM | 13.7 | 3.42 | 10.1
RPMI 5 mM glucose + 10% FBS, 0.000781 µM | 93.5 | 105 | 82.2
RPMI 5 mM glucose + 10% FBS, 0.00234 µM | 104 | 117 | 86.8
RPMI 5 mM glucose + 10% FBS, 0.00702 µM | 95.3 | 114 | 96.6
RPMI 5 mM glucose + 10% FBS, 0.0211 µM | 94.9 | 120 | 86.6
RPMI 5 mM glucose + 10% FBS, 0.0632 µM | 114 | 118 | 86.9
RPMI 5 mM glucose + 10% FBS, 0.19 µM | 97.8 | 114 | 91.2
RPMI 5 mM glucose + 10% FBS, 0.569 µM | 102 | 114 | 79.9
RPMI 5 mM glucose + 10% FBS, 1.71 µM | 97.2 | 114 | 76.2
RPMI 5 mM glucose + 10% FBS, 5.12 µM | 100 | 103 | 48.2
RPMI 5 mM glucose + 10% FBS, 15.4 µM | 102 | 85.8 | 24.9
RPMI 5 mM glucose + 10% FBS, 46.1 µM | 31 | 10.6 | 6.99
RPMI 5 mM glucose + 10% dialyzed FBS, 0.000781 µM | 92.4 | 101 | 86.9
RPMI 5 mM glucose + 10% dialyzed FBS, 0.00234 µM | 102 | 107 | 90.5
RPMI 5 mM glucose + 10% dialyzed FBS, 0.00702 µM | 107 | 103 | 101
RPMI 5 mM glucose + 10% dialyzed FBS, 0.0211 µM | 91.7 | 108 | 82.1
RPMI 5 mM glucose + 10% dialyzed FBS, 0.0632 µM | 107 | 117 | 105
RPMI 5 mM glucose + 10% dialyzed FBS, 0.19 µM | 102 | 112 | 99.4
RPMI 5 mM glucose + 10% dialyzed FBS, 0.569 µM | 95.1 | 116 | 108
RPMI 5 mM glucose + 10% dialyzed FBS, 1.71 µM | 105 | 112 | 87.6
RPMI 5 mM glucose + 10% dialyzed FBS, 5.12 µM | 96.4 | 99.3 | 64.8
RPMI 5 mM glucose + 10% dialyzed FBS, 15.4 µM | 89.2 | 87.2 | 38.1
RPMI 5 mM glucose + 10% dialyzed FBS, 46.1 µM | 37.2 | 7.97 | 7.62

CO/N=C(/C(=O)N[C@@H]1C(=O)N2C(C(=O)O)=C(Cn3ccc(=N)n3CCO)CS[C@H]12)c1csc(N)n1
AUC of viability dose-response curve
Conditions | NOMO1 [1] | P12-Ichikawa [2] | SEM cells [3]
HPLM + 10% dialyzed FBS | 421 | 460 | 413
RPMI 5 mM glucose + 10% FBS | 446 | 452 | 461
RPMI 5 mM glucose + 10% dialyzed FBS | 459 | 463 | 467

cell viability [%]
Conditions | NOMO1 [4] | P12-Ichikawa [5] | SEM cells [6]
HPLM + 10% dialyzed FBS, 0.000781 µM | 104 | 121 | 88.8
HPLM + 10% dialyzed FBS, 0.00234 µM | 115 | 123 | 90.5
HPLM + 10% dialyzed FBS, 0.00702 µM | 131 | 125 | 115
HPLM + 10% dialyzed FBS, 0.0211 µM | 136 | 136 | 108
HPLM + 10% dialyzed FBS, 0.0632 µM | 130 | 135 | 112
HPLM + 10% dialyzed FBS, 0.19 µM | 116 | 126 | 122
HPLM + 10% dialyzed FBS, 0.569 µM | 120 | 134 | 97.6
HPLM + 10% dialyzed FBS, 1.71 µM | 130 | 126 | 117
HPLM + 10% dialyzed FBS, 5.12 µM | 137 | 141 | 121
HPLM + 10% dialyzed FBS, 15.4 µM | 133 | 137 | 132
HPLM + 10% dialyzed FBS, 46.1 µM | 166 | 125 | 127
RPMI 5 mM glucose + 10% FBS, 0.000781 µM | – | – | 123
RPMI 5 mM glucose + 10% FBS, 0.00234 µM | – | – | 95
RPMI 5 mM glucose + 10% FBS, 0.00702 µM | – | – | 130
RPMI 5 mM glucose + 10% FBS, 0.0211 µM | – | – | 136
RPMI 5 mM glucose + 10% FBS, 0.0632 µM | – | – | 130
RPMI 5 mM glucose + 10% FBS, 0.19 µM | – | – | 140
RPMI 5 mM glucose + 10% FBS, 0.569 µM | – | – | 125
RPMI 5 mM glucose + 10% FBS, 1.71 µM | – | – | 147
RPMI 5 mM glucose + 10% FBS, 5.12 µM | – | – | 122
RPMI 5 mM glucose + 10% FBS, 15.4 µM | – | – | 151
RPMI 5 mM glucose + 10% FBS, 46.1 µM | – | – | 138
RPMI 5 mM glucose + 10% dialyzed FBS, 0.000781 µM | 112 | – | –
RPMI 5 mM glucose + 10% dialyzed FBS, 0.00234 µM | 117 | – | –
RPMI 5 mM glucose + 10% dialyzed FBS, 0.00702 µM | 129 | – | –
RPMI 5 mM glucose + 10% dialyzed FBS, 0.0211 µM | 133 | – | –
RPMI 5 mM glucose + 10% dialyzed FBS, 0.0632 µM | 138 | – | –
RPMI 5 mM glucose + 10% dialyzed FBS, 0.19 µM | 140 | – | –
RPMI 5 mM glucose + 10% dialyzed FBS, 0.569 µM | 130 | – | –
RPMI 5 mM glucose + 10% dialyzed FBS, 1.71 µM | 123 | – | –
RPMI 5 mM glucose + 10% dialyzed FBS, 5.12 µM | 153 | – | –
RPMI 5 mM glucose + 10% dialyzed FBS, 15.4 µM | 138 | – | –
RPMI 5 mM glucose + 10% dialyzed FBS, 46.1 µM | 134 | – | –

CC#C[C@]1(O)CC[C@H]2[C@@H]/3CCC/4=C/C(=O)CCC4=C3[C@H](C[C@]12C)C5=CC=C(C=C5)N(C)C
AUC of viability dose-response curve
Conditions | NOMO1 [1] | P12-Ichikawa [2] | SEM cells [3]
HPLM + 10% dialyzed FBS | 399 | 456 | 384
RPMI 5 mM glucose + 10% FBS | 364 | 422 | 426
RPMI 5 mM glucose + 10% dialyzed FBS | 370 | 411 | 432

cell viability [%]
Conditions | NOMO1 [4] | P12-Ichikawa [5] | SEM cells [6]
HPLM + 10% dialyzed FBS, 0.000781 µM | 95.5 | 101 | 76.6
HPLM + 10% dialyzed FBS, 0.00234 µM | 99.9 | 101 | 74.8
HPLM + 10% dialyzed FBS, 0.00702 µM | 101 | 103 | 88.3
HPLM + 10% dialyzed FBS, 0.0211 µM | 102 | 105 | 80.4
HPLM + 10% dialyzed FBS, 0.0632 µM | 103 | 107 | 68.9
HPLM + 10% dialyzed FBS, 0.19 µM | 96.1 | 110 | 87.4
HPLM + 10% dialyzed FBS, 0.569 µM | 102 | 107 | 84.1
HPLM + 10% dialyzed FBS, 1.71 µM | 94.8 | 98.7 | 89.9
HPLM + 10% dialyzed FBS, 5.12 µM | 79.3 | 102 | 89.9
HPLM + 10% dialyzed FBS, 15.4 µM | 9.1 | 75.1 | 86.1
HPLM + 10% dialyzed FBS, 46.1 µM | 6.71 | 73.1 | 58.7
RPMI 5 mM glucose + 10% FBS, 0.000781 µM | 83.5 | 95.6 | 76
RPMI 5 mM glucose + 10% FBS, 0.00234 µM | 95.2 | 108 | 84.6
RPMI 5 mM glucose + 10% FBS, 0.00702 µM | 91.3 | 105 | 99.9
RPMI 5 mM glucose + 10% FBS, 0.0211 µM | 86.2 | 104 | 102
RPMI 5 mM glucose + 10% FBS, 0.0632 µM | 90 | 105 | 96
RPMI 5 mM glucose + 10% FBS, 0.19 µM | 88.1 | 93.9 | 86.3
RPMI 5 mM glucose + 10% FBS, 0.569 µM | 93.4 | 106 | 105
RPMI 5 mM glucose + 10% FBS, 1.71 µM | 95.5 | 87.4 | 92.7
RPMI 5 mM glucose + 10% FBS, 5.12 µM | 73.2 | 83.4 | 96.1
RPMI 5 mM glucose + 10% FBS, 15.4 µM | 9.23 | 61.2 | 73
RPMI 5 mM glucose + 10% FBS, 46.1 µM | 5.91 | 30.8 | 58.3
RPMI 5 mM glucose + 10% dialyzed FBS, 0.000781 µM | 90.7 | 80 | 87.2
RPMI 5 mM glucose + 10% dialyzed FBS, 0.00234 µM | 81.5 | 94 | 91.6
RPMI 5 mM glucose + 10% dialyzed FBS, 0.00702 µM | 88.7 | 92.7 | 101
RPMI 5 mM glucose + 10% dialyzed FBS, 0.0211 µM | 97.2 | 98.9 | 110
RPMI 5 mM glucose + 10% dialyzed FBS, 0.0632 µM | 110 | 102 | 92
RPMI 5 mM glucose + 10% dialyzed FBS, 0.19 µM | 90.3 | 97.6 | 90.3
RPMI 5 mM glucose + 10% dialyzed FBS, 0.569 µM | 93 | 93 | 96
RPMI 5 mM glucose + 10% dialyzed FBS, 1.71 µM | 85.4 | 95.9 | 84
RPMI 5 mM glucose + 10% dialyzed FBS, 5.12 µM | 70.9 | 83 | 92.8
RPMI 5 mM glucose + 10% dialyzed FBS, 15.4 µM | 9.38 | 51.5 | 83
RPMI 5 mM glucose + 10% dialyzed FBS, 46.1 µM | 6.16 | 39.6 | 49.5
